This assay deals with T1, human CB2R (Homo sapiens, UniProt P34972).
T1 construct: host or cells: CHO cells
As to the kind of experiment: CB2R mediated modulation of cAMP synthesis. It is filed as cell-based. Particulars: CHO cells expressing human CB2R; inhibition of forskolin-stimulated cAMP synthesis (agonist); read-out: CB2 EC50. The method, then:
B. CB2R Mediated Modulation of cAMP Synthesis:
Compounds of the invention were evaluated for their CB2 agonist or inverse agonistic activity in accordance with the following experimental method.
CHO cells expressing human CB2R (Euroscreen) were plated at a density of 5000 cells per well in 384 well plates and incubated overnight at 37° C. After removing the media, the cells were treated with test compounds diluted in stimulation buffer containing 1 mM IBMX, 0.25% BSA and 10 uM Forskolin. The assay was incubated for 30 minutes at 37° C. Cells were lysed and the cAMP concentration was measured using DiscoverX-XS cAMP kit, following the manufacturer's protocol. In this setting, agonists will decrease forskolin induced production of cAMP while inverse agonists will further increase forskolin induced production of cAMP. EC50 of agonists were calculated as follows. The maximal amount of cAMP produced by forskolin compared to the level of cAMP inhibited by 1 uM CP55940 is defined as 100%. The EC50 value of each test compound was determined as the concentration at which 50% of the forskolin-stimulated cAMP synthesis was inhibited. Data was analyzed using a four-parameter logistic model. (Model 205 of XLfit 4.0).

This is an account of results in patent publication US8546563B2, “Compounds which modulate the CB2 receptor” (Boehringer Ingelheim International GmbH, priority 2007, dated 2013).

T1 sequence (P34972 whole entry): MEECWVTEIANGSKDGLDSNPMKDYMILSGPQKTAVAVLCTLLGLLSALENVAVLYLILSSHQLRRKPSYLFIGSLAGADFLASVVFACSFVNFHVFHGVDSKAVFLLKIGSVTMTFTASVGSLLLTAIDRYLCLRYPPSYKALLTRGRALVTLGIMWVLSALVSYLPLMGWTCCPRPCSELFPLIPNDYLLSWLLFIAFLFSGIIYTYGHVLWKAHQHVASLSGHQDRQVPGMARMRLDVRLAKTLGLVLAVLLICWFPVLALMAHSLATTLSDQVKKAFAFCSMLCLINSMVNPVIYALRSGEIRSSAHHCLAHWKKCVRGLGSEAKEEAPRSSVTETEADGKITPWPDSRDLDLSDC

One may read the EC50 as the concentration that produces a half-maximal response. As for `CC(C)(C(=O)Nc1nnc(-c2ccccc2)[nH]1)S(=O)(=O)N1CCOCC1`, the EC50 worked out at 86 nM.

`CC(C)(C(=O)Nc1nnc(-c2ccccc2)[nH]1)S(=O)(=O)N1CCC(F)C1` (stereo not shown): the EC50 is 5.1 nM.

For `CC(C)(C(=O)Nc1nnc(-c2ccccc2)[nH]1)S(=O)(=O)N1CCC1`, the EC50 amounted to 11 nM.

For the molecule `CC(C)(C(=O)Nc1nc2c(s1)CCCC2)S(=O)(=O)N1CCC1`, the EC50 is 62 nM.

On to `CC(C)(C(=O)Nc1nsc(-c2ccccc2)n1)S(=O)(=O)N1CCC1`, for which the concentration giving a half-maximal response (EC50) worked out at 72 nM.

In the case of `CC(C)(C(=O)Nc1ccc(C(F)(F)F)cc1F)S(=O)(=O)N1CCC1`, the EC50 came to 86 nM.

Turning to `CC(C)(C(=O)Nc1nc(-c2ccc(Cl)cc2)cs1)S(=O)(=O)N1CCC1`, the EC50 worked out at 8.9 nM.

For `Cc1sc(NC(=O)C(C)(C)S(=O)(=O)N2CCC2)nc1-c1ccc(F)cc1`, the EC50 was 17 nM.

`CC(C)(C(=O)Nc1nc(-c2ccc(F)cc2)cs1)S(=O)(=O)N1CCC1`: the EC50 stood at 19 nM.

As for `Cc1nc(NC(=O)C(C)(C)S(=O)(=O)N2CCC2)sc1C(C)(C)C`, the EC50 was 2.5 nM.

With `CC(C)(C)c1cc(NC(=O)C(C)(C)S(=O)(=O)N2CCC(F)C2)sn1` (stereo not shown), the EC50 came to 83 nM.

Turning to `Cn1nc(C(C)(C)C)cc1NC(=O)C(C)(C)S(=O)(=O)N1CCOCC1`, the EC50 came to 79 nM.

With `CC(C)(C)c1cc(NC(=O)C(C)(C)S(=O)(=O)N2CC(F)(F)C2)no1`, the EC50 stood at 5 nM.

Turning to `CC1CCCCN1S(=O)(=O)C(C)(C)C(=O)Nc1cc(C(C)(C)C)on1` (stereo not shown), the EC50 is 97 nM.

As for `CC(C)(C)c1cc(NC(=O)C(C)(C)S(=O)(=O)N2CC[C@@H](F)C2)no1`, the EC50 came to 5.7 nM.

For `CC(C)(C)c1cc(NC(=O)C(C)(C)S(=O)(=O)N2CCC2)no1` [Example 5, 2-(Azetidine-1-sulfonyl)-N-(5-tert-butyl-isoxazol-3-yl)-2-methyl-propionamide], the EC50 amounted to 3.6 nM.

In the case of `CC(C)(C)c1cc(NC(=O)C(C)(C)S(=O)(=O)N2CCCC2)no1` [Example 6, N-(5-tert-Butyl-isoxazol-3-yl)-2-methyl-2-(pyrrolidine-1-sulfonyl)-propionamide], the EC50 amounted to 1.3 nM.

For the molecule `CC(C)(C)c1cc(NC(=O)C(C)(C)S(=O)(=O)NC2CC2)no1` [Example 7, N-(5-tert-Butyl-isoxazol-3-yl)-2-cyclopropylsulfamoyl-2-methyl-propionamide], the 50% effective concentration (EC50) was found to be 58 nM.

On to `CC(C)(C)c1cc(NC(=O)C(C)(C)S(=O)(=O)NC2CCCCC2)no1` [Example 8, N-(5-tert-Butyl-isoxazol-3-yl)-2-cyclohexylsulfamoyl-2-methyl-propionamide], for which the half-maximal effective concentration (EC50) stood at 2.4 nM.

Regarding `CC(C)(C)c1cc(NC(=O)C(C)(C)S(=O)(=O)N2CCCCC2)no1` [Example 9, N-(5-tert-Butyl-isoxazol-3-yl)-2-methyl-2-(piperidine-1-sulfonyl)-propionamide], the EC50 stood at 6.5 nM.

In the case of `CC(C)(C)c1cc(NC(=O)C(C)(C)S(=O)(=O)NC2CCCC2)no1` [Example 10, N-(5-tert-Butyl-isoxazol-3-yl)-2-cyclopentylsulfamoyl-2-methyl-propionamide], the EC50 stood at 13 nM.

For `CCCCNS(=O)(=O)C(C)(C)C(=O)Nc1cc(C(C)(C)C)on1` [Example 24, N-(5-tert-Butyl-isoxazol-3-yl)-2-butylsulfamoyl-2-methyl-propionamide], the EC50 came to 10 nM.

As for `CCCCNS(=O)(=O)C(C)(C)C(=O)Nc1nc(C(C)(C)C)cs1` [Example 25, 2-Butylsulfamoyl-N-(4-tert-butyl-thiazol-2-yl)-2-methyl-propionamide], the EC50 was 32 nM.

As for `CCCNS(=O)(=O)C(C)(C)C(=O)Nc1cc(C(C)(C)C)on1` [Example 35, N-(5-tert-Butyl-isoxazol-3-yl)-2-methyl-2-propylsulfamoyl-propionamide], the EC50 was 33 nM.

On to `CC(C)(C)c1cc(NC(=O)C(C)(C)S(=O)(=O)N2CCOCC2)no1` [Example 40], for which the EC50 amounted to 47 nM.

With `CCCCN(C)S(=O)(=O)C(C)(C)C(=O)Nc1cc(C(C)(C)C)on1` [Example 41, N-(5-tert-Butyl-isoxazol-3-yl)-2-(butyl-methyl-sulfamoyl)-2-methyl-propionamide], the EC50 came out at 1.7 nM.

For `CC(C)(C)c1csc(NC(=O)C(C)(C)S(=O)(=O)N2CCC2)n1` [Example 44, 2-(Azetidine-1-sulfonyl)-N-(4-tert-butyl-thiazol-2-yl)-2-methyl-propionamide], the EC50 turned out to be 14 nM.

For `CC(C)(C)c1cc(NC(=O)C(C)(C)S(=O)(=O)N2CCC2)on1` [Example 47, 2-(Azetidine-1-sulfonyl)-N-(3-tert-butyl-isoxazol-5-yl)-2-methyl-propionamide], the EC50 stood at 20 nM.

Turning to `CC(C)(C(=O)Nc1nc2ccccc2s1)S(=O)(=O)N1CCC1` [Example 50, 2-(Azetidine-1-sulfonyl)-N-benzothiazol-2-yl-2-methyl-propionamide], the EC50 is 26 nM.

Take `CC(C)(C(=O)Nc1nc(-c2cccs2)cs1)S(=O)(=O)N1CCC1` [Example 53, 2-(Azetidine-1-sulfonyl)-2-methyl-N-(4-thiophen-2-yl-thiazol-2-yl)-propionamide]: the EC50 was 41 nM.

As to `CCc1sc(NC(=O)C(C)(C)S(=O)(=O)N2CCC2)nc1-c1ccccc1` [Example 54, 2-(Azetidine-1-sulfonyl)-N-(5-ethyl-4-phenyl-thiazol-2-yl)-2-methyl-propionamide], the EC50 was determined as 6.6 nM.

Consider `CC(C)(C(=O)Nc1nc(C2CCCCC2)cs1)S(=O)(=O)N1CCC1` [Example 55, 2-(Azetidine-1-sulfonyl)-N-(4-cyclohexyl-thiazol-2-yl)-2-methyl-propionamide], for which the EC50 turned out to be 22 nM.

On to `CC(C)(C)c1ccc(NC(=O)C(C)(C)S(=O)(=O)N2CCC2)cc1` [Example 58, 2-(Azetidine-1-sulfonyl)-N-(4-tert-butyl-phenyl)-2-methyl-propionamide], for which the EC50 is 3.1 nM.

For the molecule `CC(C)(C)c1cccc(NC(=O)C(C)(C)S(=O)(=O)N2CCC2)c1` [Example 65, 2-(Azetidine-1-sulfonyl)-N-(3-tert-butyl-phenyl)-2-methyl-propionamide], the EC50 amounted to 17 nM.

For the molecule `CCC(C)c1cc(NC(=O)C(C)(C)S(=O)(=O)N2CCC2)on1` (stereo not shown) [Example 73, 2-(Azetidine-1-sulfonyl)-N-(3-sec-butyl-isoxazol-5-yl)-2-methyl-propionamide], the concentration for a half-maximal effect (EC50) turned out to be 14 nM.

On to `CC(C)c1cc(NC(=O)C(C)(C)S(=O)(=O)N2CCC2)on1` [Example 74, 2-(Azetidine-1-sulfonyl)-N-(3-isopropyl-isoxazol-5-yl)-2-methyl-propionamide], for which the half-maximal effective concentration (EC50) is 108 nM.

As for `CC(C)(C)c1cc(NC(=O)C(C)(C)S(=O)(=O)N2CCC2)ccn1` [Example 82, 2-(Azetidine-1-sulfonyl)-N-(2-tert-butyl-pyridin-4-yl)-2-methyl-propionamide], the EC50 came to 37 nM.

Regarding `CC(C)(C)c1cc(NC(=O)C(C)(C)S(=O)(=O)N2CCOCC2)on1` [Example 85, N-(3-tert-Butyl-isoxazol-5-yl)-2-methyl-2-(morpholine-4-sulfonyl)-propionamide], the half-maximal effective concentration (EC50) is 15 nM.

Turning to `CN(c1ccccc1)S(=O)(=O)C(C)(C)C(=O)Nc1nc(C(C)(C)C)cs1` [N-(4-tert-Butyl-thiazol-2-yl)-2-methyl-2-(methyl-phenyl-sulfamoyl)-propionamide], the EC50 was 42 nM.

With `CC(C)(C)c1cc(NC(=O)C(C)(C)S(=O)(=O)N2CCC(F)(F)CC2)no1` [N-(5-tert-Butyl-isoxazol-3-yl)-2-(4,4-difluoro-piperidine-1-sulfonyl)-2-methyl-propionamide], the EC50 worked out at 2.5 nM.
